Patent US20160040251A1, “BIOMARKERS FOR THE IDENTIFICATION OF CHEMOSENSITIVITY” (PHARMACYCLICS, LLC, priority 2013, published 2016)

Tests used:
[1] = tested on: patient-derived xenografts CRCM226X, CRCM392X, CRCM389X; experiment: Tumor growth of patient-derived xenografts under treatment; format: in vivo, NOD/SCID mice; conditions: abexinostat i.p. 12.5 mg/Kg twice a day 5 of 7 days, docetaxel 10 mg/kg weekly, three weeks
Source text: To confirm the impact of abexinostat treatment on the CSC population from breast cancers with low XIST expression, three different patient-derived xenografts (PDXs) with distinct Xist expression level (CRCM226X, Xist^low; CRCM392X, Xist^med; CRCM389X, Xist^high) were utilized.
(§1) Animal models Cells from these PDXs were transplanted orthotopically into fat pads of NOD/SCID mice without cultivation in vitro. Single cancer cells (1,000,000 cells CRCM226X and CRCM389X, 125,000 cells CRCM392X) are injected into fat pads of NOD/SCID mice and tumor growth are monitored. When the tumor size was approximately 150 mm^3, treatment is started with abexinostat (i.p, 12.5 mg/Kg, twice a day, 5 out of 7 days for three weeks) or docetaxel (10 mg/kg weekly for three weeks) or placebo.
(§2) Six mice were injected for each PDX and for each group. After 1, 2 and 3 weeks of treatment, two mice from each group were sacrificed according to ethic statements. Tumors were dissociated and cells were analyzed for the ALDEFLUOR phenotype and tumorsphere formation capacity. Cells from 3-week treated mice were reimplanted into secondary NOD/SCID mice with injection of 1,000 cells for each treated tumor.

[2] = tested on: patient-derived xenografts CRCM226X, CRCM392X, CRCM389X; experiment: Reimplantation of cells from treated PDXs into secondary mice (tumorigenicity); format: in vivo, NOD/SCID mice
Description: as §2
Tumor growth was compared with that of placebo-treated controls. An inhibition of the CRCM226X (Xist^low) PDX growth after abexinostat and docetaxel treatment was observed. […] After three weeks of treatment, the animals were sacrificed and the proportion of ALDEFLUOR-positive CSCs was measured in each residual tumor (FIG. 6B). All PDX models presented an increase in the ALDEFLUOR-positive population isolated from docetaxel-treated tumors compared to the untreated control. […] Tumorigenicity is directly related to the presence of CSCs and this assay gives an estimate of the proportion of residual tumorigenic CSCs. For each treatment condition (placebo, abexinostat, docetaxel), 1,000 cells isolated from treated-tumors were reimplanted.

[3] = tested on: ALDEFLUOR-positive CSC population of PDXs CRCM226X, CRCM392X, CRCM389X; experiment: ALDEFLUOR assay on residual PDX tumors; format: in vivo, NOD/SCID mice; conditions: after three weeks of treatment
Description: as §1, §2
ALDEFLUOR assay The ALDEFLUOR kit (Stem Cell Technologies) was used to isolate the population with high aldehyde dehydrogenase (ALDH) enzymatic activity using an LSR2 cytometer as previously described (Ginestier et al, Cell Stem Cell, 2007). For BCLs cultivated in adherent condition, ALDEFLUOR-positive populations were evaluated after 72-hour treatment with HDACi (IC50s) or vehicle. Primary human xenografts CRCM226X, CRCM389X and CRCM392X were harvested on the 3rd week of treatment with abexinostat, docetaxel or placebo, dissociated and stained for ALDEFLUOR analysis. To eliminate cells of mouse origin from the xenotransplanted tumors, staining with an anti-H2K^d biotin antibody (1/200; BD Biosciences) followed by staining with a secondary antibody labeled with streptavidin e450 (1/200; eBioscience) was used.

[4] = tested on: breast cancer cell lines (BCLs); experiment: MTS cell viability assay in breast cancer cell lines; format: cell-based, human; conditions: for IC50: Homo sapiens, 72 h treatment, MTS; for IC50 / drug-response profiles of BCLs (high- or low-dose sensitive) versus abexinostat profiles: 72 h; for drug-response profiles of BCLs (high- or low-dose sensitive) versus abexinostat profiles: other HDACi compounds
Description: A large series of cell lines (16 BCLs) were exposed to increasing concentrations (150 nM-2.5 μM) of the abexinostat, for 72 hours. These series represent all the molecular diversity observed in breast cancers.
Cell lines. A total of 16 breast cancer cell lines (BCLs) were used for the study. HCC1500, HCC1937, HCC1954, Hs 578T, MCF7, MDA-MB-134, MDA-MB-231, MDA-MB-361, MDA-MB-436, […] were obtained from American type culture collection (http://www.atcc.org/). SUM149 and SUM159 were obtained from Dr S.
Ethier's (Karmanos Cancer Center, Detroit, Mich., USA). S68 was obtained from Dr V. Castros (University de Rennes, France) and Br-Ca-MZ-01 from Dr V. Möbus (University of Ulm, Germany). All BCLs tested were derived from carcinomas. BCLs were grown using the recommended culture conditions (Neve et al, Cancer Cell 2006).
Drugs. BCLs were continuously treated for 72h in adherent conditions with Histone Deacetylase Inhibitors (HDACi): abexinostat, SAHA and valproic acid. For experiments abexinostat was prepared in a 23,1 mM stock solution, SAHA in a 0.5M stock solution, in Dimethyl Sulfoxide (DMSO) and stored at −20° C. Valproic acid was prepared in a 1M stock solution in Phosphate Buffered Saline (PBS) and stored at 4° C. For experiments, cells were treated with respective IC50s. DMSO or PBS were used as vehicle control (C<0.1%).
Cell viability. Inhibitory Concentrations 50 (IC50s) were evaluated using 3-(4,5-dimethylthiazol-2-yl)-5-(3-carboxymethoxyphenyl)-2-(4-sulfophenyl)-2H-tetrazolium (MTS) assay. BCLs were plated in adherent condition in 96-well plates at 5,000 cells per well; except for SUM159 plated at 1,000 cells per well. After 24 h, treatment with serial dilutions of HDACi was started. The effect of treatment on cell viability was estimated after 72 h by addition of 100 μL MTS solution (5 mg/mL in PBS) in each well. Cells were then incubated for 1 h at 37° C. Absorbance was measured at 540 nm in a fluorescence plate reader.

[5] = CRCM226X (Xist low), 1,000 cells from 3-week treated tumors reimplanted
[6] = CRCM389X (Xist high), 1,000 cells from 3-week treated tumors reimplanted
[7] = CRCM392X (Xist med), 1,000 cells from 3-week treated tumors reimplanted

## CC(=O)O[C@@]12CO[C@@H]1C[C@H](O)[C@@]1(C)C(=O)[C@H](O)C3=C(C)[C@@H](OC(=O)[C@H](O)[C@@H](NC(=O)OC(C)(C)C)c4ccccc4)C[C@@](O)([C@@H](OC(=O)c4ccccc4)[C@H]21)C3(C)C [docetaxel]
[1]; CRCM226X (Xist low)
  PDX tumor growth versus placebo: inhibition
[1]; CRCM389X (Xist high)
  PDX tumor growth versus placebo: no or discrete effect
[1]; CRCM392X (Xist med)
  PDX tumor growth versus placebo: no or discrete effect
[2]; [5]
  tumor regrowth after reimplantation versus placebo-treated: tumor regrowth comparable to placebo-treated tumors
[2]; [6]
  tumor regrowth after reimplantation versus placebo-treated: tumor regrowth comparable to placebo-treated tumors
[2]; [7]
  tumor regrowth after reimplantation versus placebo-treated: tumor regrowth comparable to placebo-treated tumors
[3]; CRCM226X (Xist low)
  ALDEFLUOR-positive population versus untreated control: increase
[3]; CRCM389X (Xist high)
  ALDEFLUOR-positive population versus untreated control: increase
[3]; CRCM392X (Xist med)
  ALDEFLUOR-positive population versus untreated control: increase
[4]; conventional chemotherapeutic agent, BCLs
  drug-response profile compared to abexinostat profile: totally distinct

## CN(C)Cc1c(C(=O)NCCOc2ccc(C(=O)NO)cc2)oc2ccccc12 [abexinostat]
[1]; CRCM226X (Xist low)
  PDX tumor growth versus placebo: inhibition
[1]; CRCM389X (Xist high)
  PDX tumor growth versus placebo: no or discrete effect
[1]; CRCM392X (Xist med)
  PDX tumor growth versus placebo: no or discrete effect
[2]; [5]
  tumor regrowth after reimplantation versus placebo-treated: incapacity to regenerate a tumor
[2]; [6]
  tumor regrowth after reimplantation versus placebo-treated: higher regrowth kinetic
[2]; [7]
  tumor regrowth after reimplantation versus placebo-treated: delay in tumor regrowth
[3]; CRCM226X (Xist low)
  ALDEFLUOR-positive population versus untreated control: two-fold decrease
[3]; CRCM389X (Xist high)
  ALDEFLUOR-positive population versus untreated control: increase
[3]; CRCM392X (Xist med)
  ALDEFLUOR-positive population versus untreated control: two-fold decrease
[4]; nine BCLs sensitive to low-dose
  IC50: 170 to 460 nM
[4]; seven BCLs sensitive to high-dose
  IC50: > 700 nM

## CCCC(CCC)C(=O)O [Valproic Acid, valproic acid]
[4]
  drug-response profiles of BCLs (high- or low-dose sensitive) versus abexinostat profiles: confirmed

## O=C(CCCCCCC(=O)Nc1ccccc1)NO [SAHA, vorinostat]
[4]
  drug-response profiles of BCLs (high- or low-dose sensitive) versus abexinostat profiles: confirmed
